Experimental data taken from PMC10459042, “Synthesis of 1,2,3-Triazole-Containing Methoxylated Cinnamides and Their Antileishmanial Activity against the Leishmania braziliensis Species” (Pharmaceuticals, 2023).
Converted amounts (≈) assume the structure as drawn.

Legend:
[1] = Cytotoxicity in mammalian cells (MTT); assay type: cell-based; details: mouse; murine macrophages, 48 h at 37 °C in 5% CO2, MTT, mean ± standard deviation
Description: (§1) The in vitro antileishmanial activity was evaluated by incubating the promastigotes or axenic amastigotes (1 × 10^6 cells/well) with the 24 synthetic derivatives (Compounds 5–28; 0 to 600 µg/mL) in 96-well culture plates (Nunc, Nunclon, Roskilde, Denmark) for 48 h at 24 °C. Due to the difficulty in obtaining a high concentration of murine macrophages, the cytotoxicity experiment was evaluated by incubating such cells (5 × 10^5 per mL) with Compound 28 (0 to 600 µg/mL), which presented the best antileishmanial activity, for 48 h at 37 °C in a 5% CO2 environment. AmpB (0 to 10 µg/mL; Sigma-Aldrich, St. Louis, MO, USA) was used as a positive control in both experiments. The cell viability was assessed using the 3-(4.5-dimethylthiazol-2-yl)-2.5-diphenyl tetrazolium bromide (MTT, Sigma-Aldrich, St. Louis, MO, USA) method. The optical density (OD) values were read using a microplate spectrophotometer (Molecular Devices, Spectra Max Plus, San Jose, CA, USA) at 570 nm. Results were entered into Microsoft Excel (version 10.0) spreadsheets, and the 50% Leishmania and macrophage inhibitory concentrations (IC50 and CC50, respectively) were calculated by applying a sigmoidal regression of the dose–response curve. The SI was calculated by dividing the CC50 with the respective IC50 values.

[2] = system: Leishmania braziliensis promastigotes; test: Depolarization of mitochondrial membrane potential (ΔΨm), JC-1; assay type: cell-based; details: one IC50 value, 48 h at 24 °C; non-treated parasites 7.2
Description: Leishmania braziliensis promastigotes (1 × 10^7 cells/mL) were treated with compound 28 (at a concentration corresponding to one IC50 value) for 48 h at 24 °C. The parasites (3 × 10^6 cells/mL) were then labeled with JC-1 (5 µg/mL, Sigma-Aldrich, St. Louis, MO, USA) for 30 min at 37 °C. After washing twice with PBS to remove the non-internalized dye, the samples were added to a black 96-well plate, and the ΔΨm was analyzed in a spectrofluorometer (FLx800, BioTek Instruments, Winooski, VT, USA) with an excitation filter of 485 nm and emission wavelength of 528 nm and […] to measure the green and red fluorescence, respectively. The ΔΨm was determined using the ratio between the red/green fluorescence intensity. Parasites that were exposed to 1.3 µg/mL (5.0 µmol/L) of FCCP (Sigma-Aldrich, St. Louis, MO, USA) for 20 min were used as a control. […]
Figure 4 ΔΨm and ROS production in Leishmania after exposure to Compound 28. […] (A) Depolarization of ΔΨm was evaluated using the JC-1 fluorescent probe. Samples were analyzed fluorometrically, and the results are expressed as the ratio of red/green fluorescence. […] (B) ROS production was evaluated using the H2DCFDA probe. The fluorescence intensity was measured by fluorimetry, and the results are expressed as the fold increase in the ROS level compared with the non-treated control. […]

[3] = system: Leishmania braziliensis stationary promastigotes; test: In vitro antileishmanial activity against promastigotes (MTT); assay type: cell-based
Description: The study was approved by the Committee for the Ethical Handling of Research Animals from the Federal University of Minas Gerais (protocol number 085/2017). Leishmania braziliensis (MHOM/BR/1975/M2904) promastigotes were grown at 24 °C in Schneider’s medium (Sigma-Aldrich, USA) supplemented with 20% heat-inactivated fetal bovine serum (FBS, Sigma-Aldrich, USA) and 20 mmol/L L-glutamine at pH 7.4 [65].
as §1

[4] = system: L. braziliensis-infected macrophages; test: Treatment of infected macrophages; assay type: cell-based, Leishmania braziliensis; details: 48 h at 37 °C; for Number of Amastigotes per Cell after treatment: untreated 10.3; for Percentage of Infected Macrophages after Treatment: untreated 92.8
Description: Murine macrophages (5 × 10^5 cells) were plated on round glass coverslips in 24-well plates in RPMI 1640 medium with added 20% FBS and 20 mmol/L L-glutamine at pH 7.4 and incubated for 24 h at 37 °C in 5% CO2. Promastigotes were added to the wells (at a ratio of 10 parasites per macrophage), and cultures were incubated for 48 h at 37 °C in a 5% CO2 environment. Free parasites were removed by extensive washing with RPMI 1640 medium, and the infected macrophages were treated with Compound 28 or AmpB (0, 1.0, 2.5 and 5.0 µg/mL in both cases) for 48 h at 37 °C in 5% CO2.
To evaluate the inhibition of infection, promastigotes (5 × 10^6 cells) were first incubated with Compound 28 or AmpB (0, 1.0, 2.5 and 5.0 µg/mL in both cases) for 4 h at 24 °C; these were then used to infect murine macrophages (at a ratio of 10 parasites per macrophage) and incubated for 24 h at 37 °C in 5% CO2. Then, cells were fixed with 4% paraformaldehyde, washed, and stained with Giemsa. The percentage of infected macrophages and the number of recovered amastigotes were determined by counting 200 cells, in triplicate, using an optical microscope.

**Q.** Which CC50 at 48 h [1] does the source give for CCN(CC)c1ccc2cc(-n3cc(CNC(=O)/C=C/c4ccc(OC)c(OC)c4)nn3)c(=O)oc2c1 [Compound 28, N-((1-(7-(diethylamino)-2-oxo-2H-chromen-3-yl)-1H-1,2,3-triazol-4-yl)methyl) (3,4-dimethoxy) cinnamide] here?
**A.** The CC50 at 48 h was > 600 µg/mL.

**Q.** What about the “ΔΨm, JC-1 ratio of red/green fluorescence” value [2] of the same compound?
**A.** The value was 4.0.

**Q.** What about the “Selectivity index (SI), ratio CC50/IC50, promastigotes” value ([3]; CC50 murine macrophages / IC50 promastigotes) of the same compound?
**A.** Its value is 11.1.

**Q.** And the IC50 ([3]; Leishmania braziliensis, 48 h at 24 °C, MTT, mean ± standard deviation)?
**A.** The IC50 was 106 ± 16.7 µg/mL (≈ 210 µM).

**Q.** What about the “Number of Amastigotes per Cell after treatment” value (from here on “Number of Amastigotes per Cell”) ([4]; 1.0 µg/mL) of the same compound?
**A.** The value was 6.7.

**Q.** What about the “Percentage of Infected Macrophages after Treatment” value (shortened to “Percentage of Infected Macrophages”) ([4]; 1.0 µg/mL) of the same compound?
**A.** Its value is 79.5%.

**Q.** And the “Number of Amastigotes per Cell” value ([4]; 2.5 µg/mL)?
**A.** Its value is 4.0.

**Q.** And the “Percentage of Infected Macrophages” value ([4]; 2.5 µg/mL)?
**A.** Its value is 70.3%.

**Q.** What about the “Number of Amastigotes per Cell” value ([4]; 5.0 µg/mL) of the same compound?
**A.** The value was 2.9.

**Q.** And the “Percentage of Infected Macrophages” value ([4]; 5.0 µg/mL)?
**A.** Its value is 60.2%.
